Results published in EP4332093A1, “SALT CONTAINING PIPERAZINE POLYCYCLIC DERIVATIVE, CRYSTAL FORM THEREOF, PREPARATION METHOD THEREFOR, AND USE THEREOF” (Shanghai Hansoh Biomedical Co., Ltd., priority 2021, dated 2022).
pIC50: −log10 of the molar value. Like-named read-outs stand apart in the source and are kept apart here.

Tests used:
dopamine D3 receptor = target: T1, dopamine D3 receptor (Homo sapiens, UniProt P35462); experiment: Radioligand binding assay, dopamine D3 receptor ([3H]-methylspiperone); settings: Human Dopamine D3 Receptor membrane, [3H]-methylspiperone 0.5 nM
T1 construct: purchased PerkinElmer ES-173-M400UA
T1 sequence (P35462 whole entry): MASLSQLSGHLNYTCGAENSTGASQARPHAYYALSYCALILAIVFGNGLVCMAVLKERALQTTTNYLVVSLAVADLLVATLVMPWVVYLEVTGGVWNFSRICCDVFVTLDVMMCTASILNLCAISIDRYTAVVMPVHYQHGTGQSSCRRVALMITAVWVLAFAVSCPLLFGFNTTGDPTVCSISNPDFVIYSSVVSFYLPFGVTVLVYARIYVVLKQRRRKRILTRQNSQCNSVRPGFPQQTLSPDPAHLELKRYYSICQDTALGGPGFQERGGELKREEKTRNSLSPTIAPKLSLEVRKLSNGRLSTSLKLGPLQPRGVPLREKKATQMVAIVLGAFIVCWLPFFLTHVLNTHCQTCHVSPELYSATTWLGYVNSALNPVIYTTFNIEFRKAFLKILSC
Protocol: Determination of the binding ability of the compounds of the present invention to dopamine D3 receptor
The objective of this test example is to determine the affinity of the compounds for dopamine D3 receptor.
Experimental buffer: 50 mM Tris-HCl pH 7.4, 10 mm MgCl2; washing liquor: 50 mM Tris-HCl pH 7.4, stored at 4°C; 0.5% PEI solution: 0.5 g PEI dissolved in 100 mL ddH2O, 4°C storage of spare.
(§1) 5 µL of the test compounds (0.005 nM to 100 nM, 10 concentrations in total) and 100 µL of buffer were added to a 96-well assay plate. 1 µL of cell membrane and 300 µL of buffer were added to each well, and the plate was shaken at 600 rpm for 5 minutes. 100 µL of a mixed solution of buffer and [^3H]-methylspiperone (final concentration of 0.5 nM) was added to the reaction system per well, and the plate was shaken at 600 rpm for 5 minutes and incubated at 27°C for 30 min. The UNIFII,TER-96 GF/B filter plate pre-incubated with 0.5% PEI for 1 h was washed twice with the buffer (1 mL/well). The cell membrane suspension was added to the […]-96 GF/B filter plate, washed 4 times, and incubated at 55°C for 10 min. 40 µL of ULTIMA GOLD was added to each well, and liquid scintillation counting was carried out.
(§2) The CPM (Counts per minute) values were determined by TopCount. […] The 10 concentrations of the compound were from 100 nM to 0.005 nM after 3-fold dilution of the reaction system. The percent inhibition rate and ten-point concentration data were fitted to the parametric nonlinear logistic equation by using GraphPad prism to calculate the IC50 values of the compound.

5-HT2A receptor [1] = target: T2, 5-HT2A receptor (Homo sapiens, UniProt P28223); experiment: Radioligand binding assay, 5-HT2A receptor ([3H]-Ketanserin); set-up: purchased PerkinElmer; settings: Human 5-HT2A Receptor membrane, [3H]-Ketanserin 2 nM; read-out: 5HT-2A Binding IC50
T2 sequence (P28223 whole entry): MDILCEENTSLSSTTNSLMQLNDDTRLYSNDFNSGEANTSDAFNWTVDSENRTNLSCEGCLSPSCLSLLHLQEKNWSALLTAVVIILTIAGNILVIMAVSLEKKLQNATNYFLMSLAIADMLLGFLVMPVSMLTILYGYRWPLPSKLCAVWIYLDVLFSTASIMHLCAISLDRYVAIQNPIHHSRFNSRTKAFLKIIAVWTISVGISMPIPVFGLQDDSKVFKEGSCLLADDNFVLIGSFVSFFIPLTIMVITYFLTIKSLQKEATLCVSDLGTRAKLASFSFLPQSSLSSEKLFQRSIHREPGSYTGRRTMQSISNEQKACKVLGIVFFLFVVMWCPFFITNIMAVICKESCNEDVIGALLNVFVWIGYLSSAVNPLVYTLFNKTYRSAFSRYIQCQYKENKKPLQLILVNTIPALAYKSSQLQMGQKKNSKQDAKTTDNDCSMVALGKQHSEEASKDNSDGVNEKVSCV
Protocol: Determination of the binding ability of the compounds of the
present invention to 5-HT2A receptor
The objective of this test example is to determine the affinity of the compounds for 5-HT2A receptor.
Experimental buffer: 50 mM Tris-HCl pH 7.4, 4 mM CaCl2; washing liquor: 50 mM Tris-HCl pH 7.4, stored at 4°C; 0.5% PEI solution: 0.5 g PEI dissolved in 100 mL ddH2O, 4°C storage of spare.
as §1, with “plate. 1.5” for “plate. 1”, “and [^3H]-Ketanserin” for “and [^3H]-methylspiperone”, “of 2” for “of 0.5”, “The […]-96” for “The UNIFII,TER-96”
as §2

[2] = Pharmacokinetic assay in Balb/c mice (plasma and brain tissue); format: in vivo; settings: male, mouse, po, p.o. 5 mg/kg; for AUC(0-t): read-out: Area under curve AUC0-t; for Tmax: read-out: Peak time tmax; for Cmax: read-out: Plasma concentration Cmax; for AUC(0-inf): read-out: Area under curve AUC0-∞; for MRT: read-out: Average residence time MRT; for half-life: read-out: Half life t1/2 (converted)
Protocol: Balb/c mice were used as test animals. The pharmacokinetic behavior in mouse body (plasma and brain tissue) of the compounds of Examples of the present invention was studied at an oral administration dose of 5 mg/kg.
Compounds of the Examples of the present invention, prepared by the applicant.
Male Balb/c mice (12 mice per group), purchased from Shanghai Jiesijie Laboratory Animal Co., LTD, with Certificate No.: SCXK (Shanghai) 2013-0006 N0.311620400001794.
The test compound was dissolved in 0.5% CMC-Na (1% Tween80) by sonication to formulate a clear solution or homogeneous suspension.
After an overnight fast, male Balb/c mice (12 mice per group) were administered p.o. with the test compound at an administration dose of 5 mg/kg and an administration volume of 10 mL/kg.
0.2 mL of blood was taken from the heart of the mouse before administration and at 1, 2, 4, 8 and 24 hours after administration, and the mice were sacrificed with CO2. The samples were stored in EDTA-K2 tubes, and centrifuged for 6 minutes at 4°C, 6000 rpm to separate the plasma. The plasma samples were stored at -80°C. Whole brain tissue was taken out, weighed, placed in a 2 mL centrifuge tube, and stored at -80°C.
• 1) 160 µL of acetonitrile was added to 40 µL of the plasma sample for precipitation, and then the mixture was centrifuged for 5 to 20 minutes at 3500 × g. • 2) 90 µL of acetonitrile containing internal standard (100 ng/mL) was added to 30 µL of the plasma and brain homogenate sample for precipitation, and then the mixture was centrifuged for 8 minutes at 13000 rpm. • 3) 70 µL of water was added to 70 µL of the treated supernatant and mixed by vortex for 10 minutes. 20 µL of the supernatant was taken to analyze the concentration of the test compound by LC/MS/MS. LC/MS/MS analytical instrument: AB Sciex API 4000 Qtrap.
• Liquid chromatography condition: Shimadzu LC-20AD pump • Chromatographic column: Agilent ZORBAX XDB-C18 (50×2.1 mm, 3.5 µm); Mobile phase: Eluent A was 0.1% formic acid in water, and Eluent B was acetonitrile • Flow rate: 0.4 mL/min • Elution time: 0-4.0 minutes, the eluent is as follows:
The main parameters of pharmacokinetics were calculated by WinNonlin 6.1. Table 17: Experimental results of pharmacokinetic assay in mice

5-HT2A receptor [3] = target: T2, 5-HT2A receptor; experiment: Calcium ion mobility in cells stably expressing 5-HT2A receptors (Flp-In-CHO-5HT2A, FLIPR); format: cell-based; set-up: expressed in transfected cells; settings: Flp-In-CHO-5HT2A stable pool, 5HT stimulation
Protocol: Determination of the effect of the compounds of the present invention on calcium ion mobility in cells stably expressing 5-HT2A receptors
To determine the inhibitory effect of the compounds on 5-HT2A receptor.
• 1) Preparation of the buffer: 1 x HBSS, 20 mM HEPES, 2.5 mM probenecid (probenecid was 400 mM stock in 1 M NaOH), 0.1% BSA. Probenecid and BSA were added fresh on the day of the experiment. Experimental buffers include dye buffer and compound dilution buffer. • 2) Cell culture medium: Ham's F-12K + 10% fetal bovine serum + 600 µg/ml hygromycin B + 1* penicillin-streptomycin. Seeding medium: Ham's F-12K + 10% dialysis serum; Assay buffer: 1 x HBSS + 20 mM HEPES; Cell line: Flp-In-CHO-5HT2A stable pool. • 3) The cells were cultured in the complete medium at 37°C, 5% CO2 to 70%-90% confluency. The cells were digested with TrypLE, seeded to the 384-well assay plate at a density of 1 × 10^4 cells/well, and incubated for 16 to 24 hours (at least overnight). • 4) 20X Component A was thawed to room temperature, diluted to 2X working concentration (containing 5mM Probenecid) with the assay buffer, and placed at room temperature for later use. • 5) The cell culture plate was taken out and left to stand at room temperature for 10 min. […] 10 µl of diluted 5HT was add to each experimental well using FLIPR Tetra, and the values were read.
The calcium signal values were determined by FLIPR. The calculated output for each sampling time point in the experiment was the ratio of the 340/510 nm wavelength signals to 380/510 nm wavelength signals. The maximum minus minimum calculation was derived from the ratio signal curve. The percent inhibition rate and ten-point concentration data were fitted to the parametric nonlinear logistic equation by using GraphPad prism to calculate the IC50 values of the compound.

D3 receptor = target: T3, D3 receptor (Homo sapiens, UniProt P35462); experiment: cAMP content in cells stably expressing D3 receptors (CHO-D3, forskolin, HTRF); format: cell-based
T3 construct: expressed in transfected cells
T3 sequence (P35462 whole entry): as the sequence (P35462 whole entry) above
Protocol: Determination of the effect of the compounds of the present invention on cAMP content in cells stably expressing D3 receptors
To determine the activation effect of the compounds on D3 receptor.
• 1. Preparation of the buffer: 1* HBSS + 20mM HEPES + 0.1% BSA + 500 µM IBMX. Complete medium: Ham's F12K + 10% fetal bovine serum +1* penicillin-streptomycin + 400 µg/mL G418. • 2. CHO-D3 cells were cultured in the complete medium at 37°C, 5% CO2. After TrypLE digestion, the cells were resuspended in the experimental buffer, and seeded into a 384-well cell culture plate at a seeding density of 8000 cells per well. • 3. The experimental buffer (1*HBSS, 0.1% BSA, 20 mM HEPES and 500 µM IBMX) was prepared. The compound was diluted with the buffer. 2.5 µL of the compound solution was added to each well, and the plate was incubated at 37°C for 10 minutes. The forskolin was diluted to 8 µM (8*) with the experimental buffer. 2.5 µL of the diluted 8* forskolin was added, and the plate was incubated at 37°C for 30 minutes. cAMP-d2 and Anti-cAMP-Eu^3+ were thawed, and diluted by 20-fold with the lysis buffer. 10 µL of cAMP-d2 was added to the experimental well, followed by the addition of 10 µL of Anti-cAMP-Eu^3+. The reaction plate was centrifuged at 200 g for 30 s at room temperature, and left to stand at 25°C for 1 h. Data was collected using Envision.

| SMILES | pIC50 (dopamine D3 receptor) | pIC50 (5-HT2A receptor [1]) | AUC(0-t) ([2]; Brain) | Tmax ([2]; Brain) | Cmax ([2]; Brain) | AUC(0-t) ([2]; Plasma) | AUC(0-inf) ([2]; Plasma) | MRT ([2]; Plasma) | half-life ([2]; Plasma) | Tmax ([2]; Plasma) | Cmax ([2]; Plasma) | IC50 (5-HT2A receptor [3]) | EC50 (D3 receptor) | AUC(0-inf) ([2]; Brain) |
| --- | --- | --- | --- | --- | --- | --- | --- | --- | --- | --- | --- | --- | --- | --- |
| O=C(N[C@H]1C[C@H](CCN2CCN(c3cccc(Cl)c3Cl)CC2)C1)c1ccno1 [Example 15A, N-(Trans-3-(2-(4-(2,3-dichlorophenyl)piperazin-1-yl)ethyl)cyclobutyl)isoxazole-5-ca rboxamide] | 9.51 | 9.01 |  |  |  |  |  |  |  |  |  | 3.14 nM | 0.7 nM |  |
| Cc1cc(C(=O)NC2CC(CCN3CCN(c4cccc(Cl)c4Cl)CC3)C2)on1 (centres unmarked) [Example 14A] | 9.47 | 8.87 |  |  |  |  |  |  |  |  |  | 4.37 nM | 0.9 nM |  |
| C[C@@H]1CN(CCC2CC(NC(=O)C(C)(C)O)C2)CCN1c1cccc(Cl)c1Cl (stereo partly drawn) [Example 22, (R)-N-(3-(2-(4-(2,3-Dichlorophenyl)-3-methylpiperazin-1-yl)ethyl)cyclobutyl)-2-hy droxy-2-methylpropanamide] | 8.56 | 8.02 |  |  |  |  |  |  |  |  |  |  | 0.4 nM |  |

Other lines, results leading:

| pIC50 (dopamine D3 receptor) | pIC50 (5-HT2A receptor [1]) | AUC(0-t) ([2]; Brain) | Tmax ([2]; Brain) | Cmax ([2]; Brain) | AUC(0-t) ([2]; Plasma) | AUC(0-inf) ([2]; Plasma) | MRT ([2]; Plasma) | half-life ([2]; Plasma) | Tmax ([2]; Plasma) | Cmax ([2]; Plasma) | IC50 (5-HT2A receptor [3]) | EC50 (D3 receptor) | AUC(0-inf) ([2]; Brain) | SMILES |
| --- | --- | --- | --- | --- | --- | --- | --- | --- | --- | --- | --- | --- | --- | --- |
| 8.36 | 7.31 | 900 ng·h/mL | 1 h | 361 ng/mL | 2250 ng·h/mL | 2320 ng·h/mL | 2.3 h | 1.6 h | 0.5 h | 961 ng/mL | 39 nM |  |  | O=C(N[C@H]1C[C@@H](CCN2CCN(c3cccc(Cl)c3Cl)CC2)C1)C1(O)CC1 [Example 6B, N-(Cis-3-(2-(4-(2,3-dichlorophenyl)piperazin-1-yl)ethyl)cyclobutyl)-1-hydroxycyclo propane-1-carboxamide] |
| 8.70 | 7.72 |  |  |  |  |  |  |  |  |  | 11.6 nM | 1 nM |  | CN(C(=O)NC1CC(CCN2CCN(c3cccc(Cl)c3Cl)CC2)C1)C1CC1 (centres unmarked) [Example 20, 1-Cyclopropyl-3-(3-(2-(4-(2,3-dichlorophenyl)piperazin-1-yl)ethyl)cyclobutyl)-1-me thylurea] |
| 9.02 | 7.38 |  |  |  |  |  |  |  |  |  | 39 nM | 0.4 nM |  | CC(C)(O)C(=O)NC1CC(CCN2CCN(c3cccc(Cl)c3Cl)CC2)C1 (centres unmarked) [Example 4A] |
| 8.95 | 8.19 | 2190 ng·h/mL | 1 h | 339 ng/mL | 1480 ng·h/mL | 2000 ng·h/mL | 5.7 h | 3.4 h | 0.5 h | 369 ng/mL |  | 0.9 nM | 2310 ng·h/mL | CCN(C)C(=O)NC1CC(CCN2CCN(c3cccc4sccc34)CC2)C1 (centres unmarked) [Example 24, 3-(3-(2-(4-(Benzo[b]thiophen-4-yl)piperazin-1-yl)ethyl)cyclobutyl)-1-ethyl-1-methy lurea] |
| 9.10 | 8.20 | 1540 ng·h/mL | 1 h | 162 ng/mL | 240 ng·h/mL | 297 ng·h/mL | 5.1 h | 3.25 h | 1 h | 49.7 ng/mL |  |  | 1650 ng·h/mL | O=C(NC1CC(CCN2CCCN(c3cccc(Cl)c3Cl)CC2)C1)c1ccco1 (centres unmarked) [Example 25, N-(3-(2-(4-(2,3-Dichlorophenyl)-1,4-diazepan-1-yl)ethyl)cyclobutyl)furan-2-carbox amide] |
